Reference: paper PMC9250534, “Synthesis and direct assay of large macrocycle diversities by combinatorial late-stage modification at picomole scale” (Nature Communications, 2022)
Numbered stars: 1 amine (or outer) side, 2 acyl side, 3 side chain; on linkers, the order of the positions; unused ones are H or OH. Bridge positions count the residues as written; N and C are the ends. Square brackets hold non-standard residues; d marks the D form. Peptide text beside a SMILES is read from it. * marks the point of attachment. ξ: configuration not given here. Pro(4S-NHCO(5-Cl-2-thienyl)) = O=C(N[C@@H]1CN[C@H](C(=O)O)C1)c1ccc(Cl)s1; ξPro(4-NHCO(5-Cl-2-thienyl)) = O=C(NC1CNC(C(=O)O)C1)c1ccc(Cl)s1; Isoorotoyl = O=C(c1c[nH]c(=O)[nH]c1=O)*; 2Thenoyl(5-Cl) = O=C(c1ccc(Cl)s1)*; Phenoxyacetyl = O=C(COc1ccccc1)*; Cysteamide = C(CS[*:3])N[*:1]; Api = NC1(C(=O)O)CCNCC1; Orn = NCCC[CH](N)C(=O)O; Dap = NC[C@H](N)C(=O)O; Bz = O=C(c1ccccc1)*; Mpa = O=C(O)CCS

Molecular target: T1, thrombin (Homo sapiens, UniProt P00734)
T1 construct: consists of two polypeptide chains of 36 (light chain) and 259 amino acid
Assay: Thrombin inhibition screen of crude macrocycle reactions (residual thrombin activity, fluorogenic substrate Z-Gly-Gly-Arg-AMC)
Type: biochemical
Conditions: 10 µM macrocycle concentration; for percent residual thrombin activity: crude reactions, Library 1a-l, scaffold AA1-AA2-AA3 combined with 1-16 or '-'; for % thrombin activity, Original screen / % thrombin activity, Repeat screen: macrocycles containing acid 14, crude reaction; for % thrombin activity, Repeat screen: replicate reaction and screen
Method in brief: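 Each crude macrocycle (10 μM) was preincubated 10 min at room temperature with thrombin (2 nM final) in Tris-Cl pH 7.4 containing NaCl, MgCl2, CaCl2, 0.1% BSA, 0.01% Triton X-100 and 0.6% DMSO. Z-Gly-Gly-Arg-AMC (50 μM final) was then added. Inhibition came from fluorescence slopes relative to DMSO-only controls.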

| % thrombin activity, Original screen | % thrombin activity, Repeat screen | Compound | other results |
| --- | --- | --- | --- |
| – | – | NCCCC[C@@H]1NC(=O)C2(CC2)CNC(=O)[C@H](Cc2c[nH]c3ccccc23)NC(=O)CCSSCCNC1=O [W-B6-D1/-] | percent residual thrombin activity: 87.3276% |
| – | – | O=C1CCSSCCNC(=O)[C@@H]2CCCN2C(=O)[C@H](CCCCNC(=O)c2ccccc2)NC(=O)[C@H](Cc2c[nH]c3ccccc23)N1 [W-D1-B1/1] ([Mpa]WK(Bz)P-Cysteamide; disulfide 1-C) | percent residual thrombin activity: 101.199% |
| – | – | O=C1CCSSCCNC(=O)[C@@H]2CCCN2C(=O)[C@H](CCCCNC(=O)c2c[nH]c(=O)[nH]c2=O)NC(=O)[C@H](Cc2c[nH]c3ccccc23)N1 [W-D1-B1/11] ([Mpa]WK(Isoorotoyl)P-Cysteamide; disulfide 1-C) | percent residual thrombin activity: 99.1805% |
| – | – | O=C(COc1ccccc1)NCCCC[C@@H]1NC(=O)[C@H](Cc2c[nH]c3ccccc23)NC(=O)CCSSCCNC(=O)[C@@H]2CCCN2C1=O [W-D1-B1/13] ([Mpa]WK(Phenoxyacetyl)P-Cysteamide; disulfide 1-C) | percent residual thrombin activity: 96.359% |
| 108.1% | 109.9% | CC(C)[C@H]1NC(=O)[C@H](CCCCNC(=O)c2ccc(Cl)s2)NC(=O)[C@@H]2CCCN2C(=O)CCSSCCNC1=O [X B1 D1 v] ([Mpa]PK(2Thenoyl(5-Cl))[dV]-Cysteamide; disulfide 1-C) | – |
| 103.7% | 108.0% | O=C(NCCCC[C@@H]1NC(=O)[C@@H]2CCCN2C(=O)CCSSCCNC(=O)[C@@H](Cc2ccc(O)cc2)NC1=O)c1ccc(Cl)s1 [X B1 D1 y] ([Mpa]PK(2Thenoyl(5-Cl))[dY]-Cysteamide; disulfide 1-C) | – |
| 86.2% | 88.2% | O=C(NC[C@@H]1NC(=O)[C@@H]2CCCN2C(=O)CCSSCCNC(=O)[C@@H](Cc2ccccc2)NC1=O)c1ccc(Cl)s1 [X B1 D3 f] ([Mpa]P[Dap](2Thenoyl(5-Cl))[dF]-Cysteamide; disulfide 1-C) | – |
| 96.1% | 98.4% | NC(=O)CC[C@@H]1NC(=O)[C@@H]2C[C@H](NC(=O)c3ccc(Cl)s3)CN2C(=O)[C@@H]2CCCN2C(=O)CCSSCCNC1=O [X B1 D5 Q] ([Mpa]P[Pro(4S-NHCO(5-Cl-2-thienyl))]Q-Cysteamide; disulfide 1-C) | – |
| 90.0% | 94.0% | O=C1NCCSSCCC(=O)N2CCC[C@H]2C(=O)NC2(CCN(C(=O)c3ccc(Cl)s3)CC2)C(=O)N[C@H]1Cc1c[nH]cn1 [X B1 D6 H] ([Mpa]P[Api](2Thenoyl(5-Cl))H-Cysteamide; disulfide 1-C) | – |
| 91.7% | 93.5% | NC(=O)CC[C@@H]1NC(=O)C2(CCN(C(=O)c3ccc(Cl)s3)CC2)NC(=O)[C@@H]2CCCN2C(=O)CCSSCCNC1=O [X B1 D6 Q] ([Mpa]P[Api](2Thenoyl(5-Cl))Q-Cysteamide; disulfide 1-C) | – |
| 94.2% | 99.9% | CC(C)CC1NC(=O)C2CCCN2C(=O)CCSSCCNC(=O)C2CC(NC(=O)c3ccc(Cl)s3)CN2C1=O (centres unmarked) [X B1 L D5] ([Mpa]PL[ξPro(4-NHCO(5-Cl-2-thienyl))]-Cysteamide; disulfide 1-C; configuration not given here) | – |
| 92.6% | 89.5% | NC(=O)CCC1NC(=O)C2CCCN2C(=O)CCSSCCNC(=O)C(CCCNC(=O)c2ccc(Cl)s2)NC1=O (centres unmarked) [X B1 Q D2] ([Mpa]PQ[Orn](2Thenoyl(5-Cl))-Cysteamide; disulfide 1-C; configuration not given here) | – |
| 94.1% | 97.2% | O=C1NC2(CCN(C(=O)c3ccc(Cl)s3)CC2)C(=O)NCCSSCCC(=O)N2CCCC2C(=O)NC1Cc1c[nH]c2ccccc12 (centres unmarked) [X B1 w D6] ([Mpa]PW[Api](2Thenoyl(5-Cl))-Cysteamide; disulfide 1-C; configuration not given here) | – |
| 83.8% | 76.6% | O=C1CCSSCCNC(=O)[C@H](CO)NC(=O)[C@H](CNC(=O)c2ccc(Cl)s2)NC(=O)CCN1 [X B2 D3 S] | % thrombin activity, Original screen (listed as X B2 D3 s): 102.4%; % thrombin activity, Repeat screen (listed as X B2 D3 s): 99.4% |
| 88.8% | 91.0% | O=C1CCSSCCNC(=O)[C@@H](Cc2c[nH]c3ccccc23)NC(=O)[C@@H](CNC(=O)c2ccc(Cl)s2)NC(=O)CCN1 [X B2 D4 w] | – |
| 95.8% | 101.8% | O=C1CCSSCCNC(=O)C(Cc2c[nH]c3ccccc23)NC(=O)C2CC(NC(=O)c3ccc(Cl)s3)CN2C(=O)CCN1 (centres unmarked) [X B2 D5 w] | – |
| 34.0% | 33.5% | O=C1CCSSCCNC(=O)[C@H](CNC(=O)c2ccc(Cl)s2)NC(=O)[C@H](Cc2ccccc2)NC(=O)CCN1 [X B2 F D3] | – |
| 96.8% | 101.7% | O=C1CCSSCCNC(=O)C2(CCN(C(=O)c3ccc(Cl)s3)CC2)NC(=O)[C@H](Cc2c[nH]cn2)NC(=O)CCN1 [X B2 H D6] | – |
| 61.5% | 68.8% | O=C1CCSSCCNC(=O)[C@@H](CNC(=O)c2ccc(Cl)s2)NC(=O)[C@H](Cc2c[nH]c3ccccc23)NC(=O)CCN1 [X B2 W D4] | – |

| % thrombin activity, Original screen | % thrombin activity, Repeat screen | Compound | other results |
| --- | --- | --- | --- |
| 96.5% | 92.7% | C[C@H]1NC(=O)CCNC(=O)CCSSCCNC(=O)C2(CCN(C(=O)c3ccc(Cl)s3)CC2)NC1=O [X B2 a D6] | – |
| 91.1% | 96.6% | O=C1CCSSCCNC(=O)C(Cc2ccccc2)NC(=O)C(CNC(=O)c2ccc(Cl)s2)NC(=O)c2ccc(cc2)CN1 (centres unmarked) [X B3 D3 f] | – |
| 62.7% | 59.9% | O=C1CCSSCCNC(=O)C(CNC(=O)c2ccc(Cl)s2)NC(=O)C(Cc2ccccc2)NC(=O)c2ccc(cc2)CN1 (centres unmarked) [X B3 F D3] | – |
| 91.2% | 94.4% | CC(C)C[C@@H]1NC(=O)c2ccc(cc2)CNC(=O)CCSSCCNC(=O)C2(CCN(C(=O)c3ccc(Cl)s3)CC2)NC1=O [X B3 L D6] | – |
| 102.1% | 107.7% | CC(C)[C@@H]1NC(=O)c2ccc(cc2)CNC(=O)CCSSCCNC(=O)[C@H](CCCCNC(=O)c2ccc(Cl)s2)NC1=O [X B3 V D1] | – |
| 106.6% | 108.9% | O=C1CCSSCCNC(=O)[C@H](CCCCNC(=O)c2ccc(Cl)s2)NC(=O)[C@@H](Cc2ccc(O)cc2)NC(=O)c2ccc(cc2)CN1 [X B3 y D1] | – |
| 88.0% | 89.2% | O=C1CCSSCCNC(=O)[C@H](CNC(=O)c2ccc(Cl)s2)NC(=O)[C@@H](Cc2ccc(O)cc2)NC(=O)c2ccc(cc2)CN1 [X B3 y D3] | – |
| 96.9% | 99.9% | O=C(NCCCCC1NC(=O)C2CCCN(C2)C(=O)CCSSCCNC(=O)C(CO)NC1=O)c1ccc(Cl)s1 (centres unmarked) [X B4 D1 S] | – |
| 64.0% | 61.8% | CCC(C)C1NC(=O)C(CNC(=O)c2ccc(Cl)s2)NC(=O)C2CCCN(C2)C(=O)CCSSCCNC1=O (centres unmarked) [X B4 D3 I] | – |
| 62.4% | 58.2% | CC(C)[C@@H]1NC(=O)[C@H](CNC(=O)c2ccc(Cl)s2)NC(=O)[C@H]2CCCN(C2)C(=O)CCSSCCNC1=O [X B4 D3 V] | – |
| 87.7% | 85.3% | O=C1NC2(CCN(C(=O)c3ccc(Cl)s3)CC2)C(=O)N[C@@H](CO)C(=O)NCCSSCCC(=O)N2CCC[C@H]1C2 [X B4 D6 S] | – |
| 97.0% | 93.7% | CC(C)C[C@@H]1NC(=O)[C@H]2CCCN(C2)C(=O)CCSSCCNC(=O)[C@@H](CNC(=O)c2ccc(Cl)s2)NC1=O [X B4 L D4] | – |
| 93.8% | 99.5% | NC(=O)CC[C@@H]1NC(=O)[C@H]2CCCN(C2)C(=O)CCSSCCNC(=O)C2(CCN(C(=O)c3ccc(Cl)s3)CC2)NC1=O [X B4 Q D6] | – |
| 84.9% | 86.6% | O=C(NCCCC[C@@H]1NC(=O)[C@H](Cc2c[nH]c3ccccc23)NC(=O)[C@H]2CCCN(C2)C(=O)CCSSCCNC1=O)c1ccc(Cl)s1 [X B4 W D1] | % thrombin activity, Original screen (listed as X B4 w D1): 105.6%; % thrombin activity, Repeat screen (listed as X B4 w D1): 113.0% |
| 104.5% | 106.7% | O=C(NC[C@H]1NC(=O)[C@@H](CO)NC(=O)[C@H]2CCCN(C2)C(=O)CCSSCCNC1=O)c1ccc(Cl)s1 [X B4 s D4] | – |
| 86.0% | 83.0% | CC[C@H](C)[C@@H]1NC(=O)[C@H](CCCNC(=O)c2ccc(Cl)s2)NC(=O)c2cccc(c2)CNC(=O)CCSSCCNC1=O [X B5 D2 I] | – |
| 91.3% | 95.8% | O=C1CCSSCCNC(=O)C(Cc2ccccc2)NC(=O)C2CC(NC(=O)c3ccc(Cl)s3)CN2C(=O)c2cccc(c2)CN1 (centres unmarked) [X B5 D5 f] | – |
| 112.0% | 122.3% | O=C1CCSSCCNC(=O)C(Cc2c[nH]c3ccccc23)NC(=O)C2CC(NC(=O)c3ccc(Cl)s3)CN2C(=O)c2cccc(c2)CN1 (centres unmarked) [X B5 D5 w] | – |
